Here are results for one compound from patent US5783586A, “Heteroarylmethoxyphenylthioalkyl carboxylates as inhibitors of leukotriene biosynthesis” (Abbott Laboratories, priority 1996, dated 1998).

Molecules are shown by their SMILES.

In assay [1] the test system is leukotriene biosynthesis (LTB4) in human polymorphornuclear leukocytes (PMNL). The assay is described as follows: calcium ionophore-induced LTB4 in human PMNL (leukotriene biosynthesis inhibition in vitro). The format is cell-based. The conditions noted are these: calcium ionophore 8.3 μM, 15 min preincubation, LTB4 measured. As for the experimental part:
Lipoxygenase Inhibition Determination in vitro
Inhibition of leukotriene biosynthesis was evaluated in vitro using an assay involving calcium ionophore-induced LTB4 expressed in human polymorphornuclear leukocytes (PMNL). Human PMNL isolated from heparinized (20 USP units/mL) venous blood (25 mL) obtained from healthy volunteers was layered over an equal volume of Ficoll-Hypaque Mono-Poly Resolving Medium (ICN Flow, Costa Mesa, Calif.) and centrifugated at 400 × g for 40 minutes at 20° C. The PMNL was collected, erythrocytes lysed and washed 2× and suspended at 1.0×10^7 cells/ml in Earle's balanced salt solution with 17 mM Earle's HEPES. Aliquots of the cell suspension were preincubated with test compounds dissolved in DMSO (final concentration <2%) for 15 minutes and stimulated with calcium ionophore (final concentration 8.3 μM) for 10 minutes at 37° C. Incubations were stopped with the addition of two volumes of ice-cold methanol followed by centrifuging the cell suspensions at 4° C. for 10 minutes at 450 × g. The amount of LTB4 in the methanol extract was analyzed by enzyme-linked immunoassay or by HPLC analysis.

Assay [2] deals with leukotriene biosynthesis. The assay is described as follows: Ionophore A23187-Induced Rat Pleural Inflammation Model (leukotriene biosynthesis inhibition in vivo). The following applies: 1 h, male rats, dosed in 0.2% methocel one hour prior to intrapleural A23187, eicosanoids in pleural lavage. As for the experimental part: Lipoxygenase Inhibition Determination in vivo
Inhibition of leukotriene biosynthesis in vivo was evaluated using the lonophore A32187-Induced Rat Plueral Inflammation Model. Pleural inflammation was induced in male rats following the method of Rao, et al (Rao, T. S., Currie, J. L., Shaffer, A. F., Isakson, P. C., (1993) Evaluation of 5-lipoxygenase Inhibitors, Zileuton, A-78773 and ICI D-2138 in an Ionophore (A-23187) Induced Pleural Inflammation Model in the Rat, Life Sciences, 53: 147 (1993)). Rats were dosed with experimental compounds in 0.2% methocel one hour prior to the intrapleural injection of the calcium ionophore, A23187. The rats where lightly anesthetized with Pentrane (Abbott Laboratories) and injected intrapleurally with 0.5 ml of 2% ethanol in injectable saline (Abbott Laboratories) containing 20 μg of A23187 (Cal BioChem-Novabiochem). Thirty minutes later the animals were euthanised and the pleural cavities lavaged with ice cold saline (Abbott Laboratories). The lavage fluid was then added to ice cold methanol (final methanol concentration 30%) to lyse cells and precipitate protein. Eicosanoids were determined by enzyme immunoassay by standard methods.

Usually IC50 stands for the concentration needed to halve the response being measured. As a reminder, the ED50 is the dose that gives a 50% effect, or the effect in half of the subjects. A lower ED50 goes with an effect at a small dose. In the case of `CC(SCC(=O)O)(c1ccc(OCc2ccc3ccccc3n2)cc1)c1ccc(OCc2ccc3ccccc3n2)cc1` [Example 1, 1,1-bis(4-(2-quinolylmethoxy)phenyl)eth-1-ylthioacetic acid], the IC50 in assay [1] came out at 230 nM. The compound also gave an ED50 in assay [2] of 1.1 mg/kg.
